The values below are quoted from earlier work in patent publication US7388019B2, “3-amino-4-phenylbutanoic acid derivatives as dipeptidyl peptidase inhibitors for the treatment or prevention of diabetes” (Merck & Co., Inc., priority 2003, dated 2008).

For series [1] the following is noted: rats.
For series [2] the following is noted: mouse, cyclophosphamide-induced neutropenia.
For series [3], the target named is T1, DP-IV (Homo sapiens, UniProt P27487).
T1 construct: GRF is rapidly degraded in plasma to GRF[3-44]; from tissue
T1 sequence (P27487 39-766 limits assumed): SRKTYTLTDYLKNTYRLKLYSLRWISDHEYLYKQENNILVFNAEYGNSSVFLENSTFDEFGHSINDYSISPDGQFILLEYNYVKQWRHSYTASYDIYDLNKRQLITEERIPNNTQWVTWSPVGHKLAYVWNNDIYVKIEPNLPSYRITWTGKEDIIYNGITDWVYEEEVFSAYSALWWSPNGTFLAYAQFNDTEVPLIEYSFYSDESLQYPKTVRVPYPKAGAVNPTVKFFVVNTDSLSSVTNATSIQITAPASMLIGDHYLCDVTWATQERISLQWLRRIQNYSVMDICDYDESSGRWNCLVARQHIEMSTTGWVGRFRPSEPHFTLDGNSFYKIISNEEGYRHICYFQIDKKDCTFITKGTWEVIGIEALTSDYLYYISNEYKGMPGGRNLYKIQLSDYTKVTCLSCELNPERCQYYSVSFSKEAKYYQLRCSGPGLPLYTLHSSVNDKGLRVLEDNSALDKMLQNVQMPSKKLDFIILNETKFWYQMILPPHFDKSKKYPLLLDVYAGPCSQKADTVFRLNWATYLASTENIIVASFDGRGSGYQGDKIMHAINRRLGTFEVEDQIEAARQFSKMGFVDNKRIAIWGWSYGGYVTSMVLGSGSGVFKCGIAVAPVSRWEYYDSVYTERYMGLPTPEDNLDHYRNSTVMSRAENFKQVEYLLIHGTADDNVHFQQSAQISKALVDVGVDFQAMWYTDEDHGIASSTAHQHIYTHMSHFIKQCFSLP
The conditions noted are these: plasma.

Turning to `CC(C)N1CCC(c2ccccc2)(c2ccccc2)CC1` [Prodipine, Pro-Pro-diphenyl-phosphonate], in series [1], the cardiac allograft survival entry is given as “double cardiac allograft survival in rats from day 7 to day 14”.

As for `CC(C)[C@H](N)C(=O)N1CCC[C@H]1B(O)O` [Val-Boro-Pro], the hematopoiesis result in series [2] was “stimulated hematopoiesis”. diprotin A: in series [3], the “degradation of GRF to GRF[3-44]” value is recorded as “prevented”.
